Patent US10548902B1, “Telomerase enhancement potential of ecdysterone” (SAMI LABS LIMITED, priority 2018, dated 2020)

Biological target: T1, Telomerase (Homo sapiens, UniProt O14746)
T1 construct: endogenous in cells; host or cells: PBMCs isolated from blood, stimulated with 10 μg/ml PHA
Experiment: Telomerase activity, TeloTAGGG telomerase PCR ELISA (TRAP assay) in PHA-treated PBMCs
Type: cell-based
Conditions: for % increase in Telomerase activity: PBMCs, 10 μg/ml PHA, 48 hours
Protocol: The assay was carried out using Telo TAGGG telomerase PCR ELISA kit (Roche). It allows highly specific amplification of telomerase mediated elongation products followed by detection through ELISA. In the first step telomerase adds the telomeric repeats (TTAGGG) tot eh 3′ end of the biotin labeled synthetic P1 primer. In the second step these elongation products are amplified using P2 and P1 primers generating telomerase specific 6 bp increments. PCR product is denatured and hybridized to a digioxigenin labeled telomere repeat specific detection probe. The resultant product is bound to a streptavidin specific miroplate via biotin labeled primer 1. The bound products are detected using anti digioxigenein antibody conjugated to horse radish peroxidase. The enzyme reaction is visualized using […] substrate.
2×10^5 PBMCs isolated from blood were seeded in RPMI 1640 medium in 6 well plates. Cells were treated with 10 μg/ml PHA along with different concentrations of ecdysterone/extracts containing ecdysterone. Cells were incubated in a humidified atmosphere with 5% CO2 for 48 hours. After 48 hours of incubation, cells were harvested and centrifuged at 3000 g for 10 minutes at 4° C. Supernatant was removed and PBS was added and centrifuged again. Pellet was suspended in lysis reagent on ice (TeloTAGGG™ Telomerase PCR ELISA). Suspension was retero pipetted at least thrice and incubated for 20 minutes on ice and centrifuged at 16000 g for 20 minutes at 4° C. TRAP assay followed by ELISA was performed as per manufacturer's instructions (TeloTAGGG™ Telomerase PCR ELISA, Merck).

T1 sequence (O14746 whole entry): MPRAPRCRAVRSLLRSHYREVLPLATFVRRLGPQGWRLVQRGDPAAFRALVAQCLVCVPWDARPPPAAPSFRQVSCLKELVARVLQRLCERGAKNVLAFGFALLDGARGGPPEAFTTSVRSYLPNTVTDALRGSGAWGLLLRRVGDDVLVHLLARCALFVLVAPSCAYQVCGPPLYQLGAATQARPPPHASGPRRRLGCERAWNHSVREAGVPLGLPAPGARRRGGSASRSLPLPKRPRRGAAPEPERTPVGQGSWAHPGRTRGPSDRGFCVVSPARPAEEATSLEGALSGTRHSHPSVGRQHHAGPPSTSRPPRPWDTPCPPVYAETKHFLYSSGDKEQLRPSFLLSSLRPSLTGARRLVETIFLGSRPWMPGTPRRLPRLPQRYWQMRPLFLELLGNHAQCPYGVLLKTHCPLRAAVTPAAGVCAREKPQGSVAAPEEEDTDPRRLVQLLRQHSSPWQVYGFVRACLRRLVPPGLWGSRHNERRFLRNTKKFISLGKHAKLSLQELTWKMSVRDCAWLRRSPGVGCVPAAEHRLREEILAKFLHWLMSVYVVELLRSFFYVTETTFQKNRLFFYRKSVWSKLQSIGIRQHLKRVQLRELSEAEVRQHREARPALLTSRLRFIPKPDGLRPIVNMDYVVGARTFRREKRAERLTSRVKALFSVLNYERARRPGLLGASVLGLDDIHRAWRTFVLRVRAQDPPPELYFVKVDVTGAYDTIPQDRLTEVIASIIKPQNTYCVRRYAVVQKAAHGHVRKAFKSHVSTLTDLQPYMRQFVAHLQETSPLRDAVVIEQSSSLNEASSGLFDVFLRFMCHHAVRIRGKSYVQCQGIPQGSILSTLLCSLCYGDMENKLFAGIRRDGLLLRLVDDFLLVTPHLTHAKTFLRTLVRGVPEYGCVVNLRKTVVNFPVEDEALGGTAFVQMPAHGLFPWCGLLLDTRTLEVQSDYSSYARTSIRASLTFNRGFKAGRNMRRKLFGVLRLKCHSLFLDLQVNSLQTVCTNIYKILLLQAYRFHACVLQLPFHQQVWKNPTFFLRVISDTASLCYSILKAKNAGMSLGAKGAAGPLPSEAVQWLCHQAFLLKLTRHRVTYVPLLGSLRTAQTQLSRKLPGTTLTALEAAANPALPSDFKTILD

- increase in telomerase activity (in words) (concentrations of 0.062-0.25 μg/ml): significant increase
- % increase in Telomerase activity (ecdysterone 0.062 μg/ml): 62.1%
- % increase in Telomerase activity (ecdysterone 0.125 μg/ml): 64.7%
- % increase in Telomerase activity (ecdysterone 0.25 μg/ml): 63.31%
- % increase in Telomerase activity (ecdysterone 0.5 μg/ml): Nil
Compound: CC(C)(O)CC[C@@H](O)[C@](C)(O)[C@H]1CC[C@@]2(O)C3=CC(=O)[C@@H]4C[C@@H](O)[C@@H](O)C[C@]4(C)[C@H]3CC[C@]12C [Ecdysterone, ecdysterone]
